# Assay results from patent publication US8546452B2, “S1P3 receptor antagonist” (TOA Eiyo Ltd., priority 2005, dated 2013).
# Where two headings read alike, the source gives them in different places.
# Assays:
# hS1P1 = target: T1, hS1P1 (Homo sapiens, UniProt P21453); assay: S1P receptor subtype selectivity, S1P-induced [Ca2+]i increase in CHO-K1 cells stably expressing S1P1 (Calcium3); assay type: cell-based
# T1 construct: expressed in transfected cells
# Description: (§1) The selectivity to the S1P receptor subtype was examined in the following manner. […] Furthermore, a Calcium3 (Molecular Devices, Inc.) solution prepared in HBSS (+) buffer, which is a fluorescent Ca^2+ indicator, was added, and the cells were incubated for 60 minutes at 37° C. Then, 100 μL of a test compound solution prepared to a concentration of 2×10 μmol/L was added, and the cells were incubated for 20 minutes at 37° C. […] The indicator was prepared and used according to the instruction manual.
# (§2) A solution of the test compound was prepared by dissolving each of the test compounds in DMSO to a concentration of 10 mmol/L, and then diluting the solution with an HBSS (+) buffer solution to the predetermined concentration. […] The measurement values were obtained by subtracting the maximum RFU value for the blind test from the maximum RFU values for control or each test compounds. A decrease in the measurement value for the test compound relative to the control was indicated as the suppression rate (%), from which the IC50 value was calculated.
# hS1P3 [1] = target: T2, hS1P3 (Homo sapiens, UniProt Q99500); assay: S1P receptor subtype selectivity, S1P-induced [Ca2+]i increase in CHO-K1 cells stably expressing S1P3 (Calcium3); assay type: cell-based
# Description: as §1, §2
# hS1P3 [2] = target: T2, hS1P3; assay: Suppressive effect on S1P-induced increase in [Ca2+]i, CHO-K1 cells expressing S1P3 (Fura 2-AM), IC50; assay type: cell-based; conditions: S1P solution 50 nmol/L, read-out: hS1P3 suppression IC50
# hS1P2 = target: T3, hS1P2 (Homo sapiens, UniProt O95136); assay: S1P receptor subtype selectivity, S1P-induced [Ca2+]i increase in CHO-K1 cells stably expressing S1P2 (Calcium3); assay type: cell-based
# T3 construct: expressed in transfected cells
# Description: as §1, §2
# [3] = Time to reach the maximum blood concentration after oral administration; assay type: in vivo; conditions: oral administration (1 mg/kg)
# [4] = tested on: FTY720-induced bradycardia; assay: Effect on hemodynamic changes (bradycardia) caused by FTY720 in anesthetized rat; assay type: in vivo; conditions: FTY720 1 mg/kg intravenously
# Description: Thus, the effects of the compound of the present invention on the FTY720-induced bradycardia were examined.
# A rat was anesthetized with pentobarbital (50 mg/kg, intraperitoneal administration), and then catheters for drug administration and blood pressure measurement were inserted into the lower limb vein and the carotid artery, respectively. The blood pressure was measured with a strain pressure amplifier via a pressure transducer. The heart rate was measured with a tachometer by means of the electrocardiographic wave. The FTY720 used was purchased from Cayman Chemical Co.
# FTY720 (1 mg/kg) was intravenously administered, and the effects thereof on hemodynamics were investigated by measuring the blood pressure and the heart rate at 0 minute (immediately before administration), and 10, 20 and 30 minutes immediately after the intravenous administration.
# isolated heart of rat = assay: Effect on the coronary blood flow rate in isolated heart of rat (Langendorff perfusion); conditions: S1P 10^−9 M to 10^−7 M in perfusion solution
# Description: A male SD rat weighing about 350 g was anesthetized with pentobarbital sodium (50 mg/kg), and heparin (1000 U/kg) was administered through the lower limb vein. The heart was rapidly isolated and connected to a Langendorff perfusion apparatus. […] The temperature of the perfusion solution was set at 37±0.2° C., and gassed with a gas mixture (95% O2 and 5% CO2) such that the oxygen partial pressure was 550 mmHg or more. The coronary perfusion flow rate was measured with an electromagnetic blood flow meter through a probe installed in the circulation pathway. Furthermore, the effects on the heart function were investigated using the left ventricular developed pressure (LVDP), the first derivative of the left ventricular pressure (LV±dp/dt) and the heart rate (HR) as indices. The LVDP was determined by subtracting the left ventricular end diastolic pressure (LVEDP) from the left ventricular systolic pressure (LVSP), which was detected with a latex balloon inserted into the left ventricle, and measured with a pressure strain meter via a pressure transducer. […] Signals measured with the pressure strain meter were conducted to a differential meter and a heart rate meter, to measure the first derivative of the left ventricular pressure (LV±dp/dt) and the heart rate (HR). […]
# [5] = 10 μM, CHO-K1 stably expressing S1P1, S1P solution 100 nmol/L, Calcium3, read-out: Suppression rate at 10 μM (%) hS1P1
# [6] = 10 μM, CHO-K1 stably expressing S1P3, S1P solution 50 nmol/L, Calcium3, read-out: Suppression rate at 10 μM (%) hS1P3
# [7] = 10 μM, CHO-K1 stably expressing S1P2, S1P solution 100 nmol/L, Calcium3, read-out: Suppression rate at 10 μM (%) hS1P2
# [8] = CHO-K1, read-out: Suppression rate at 10 μM (%) hS1P1
# [9] = CHO-K1, read-out: Suppression rate at 10 μM (%) hS1P3
# [10] = CHO-K1, read-out: Suppression rate at 10 μM (%) hS1P2
# T3 sequence (O95136 whole entry): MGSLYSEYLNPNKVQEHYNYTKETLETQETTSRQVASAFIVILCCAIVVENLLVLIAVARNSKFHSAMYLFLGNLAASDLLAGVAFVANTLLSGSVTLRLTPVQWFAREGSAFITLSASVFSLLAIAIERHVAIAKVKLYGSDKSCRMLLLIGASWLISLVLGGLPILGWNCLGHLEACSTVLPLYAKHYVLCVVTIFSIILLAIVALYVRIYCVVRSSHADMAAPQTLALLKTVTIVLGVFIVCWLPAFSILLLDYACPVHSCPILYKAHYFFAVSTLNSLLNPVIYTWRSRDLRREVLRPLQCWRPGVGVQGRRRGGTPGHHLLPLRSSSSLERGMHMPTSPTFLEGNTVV
# T1 sequence (P21453 whole entry): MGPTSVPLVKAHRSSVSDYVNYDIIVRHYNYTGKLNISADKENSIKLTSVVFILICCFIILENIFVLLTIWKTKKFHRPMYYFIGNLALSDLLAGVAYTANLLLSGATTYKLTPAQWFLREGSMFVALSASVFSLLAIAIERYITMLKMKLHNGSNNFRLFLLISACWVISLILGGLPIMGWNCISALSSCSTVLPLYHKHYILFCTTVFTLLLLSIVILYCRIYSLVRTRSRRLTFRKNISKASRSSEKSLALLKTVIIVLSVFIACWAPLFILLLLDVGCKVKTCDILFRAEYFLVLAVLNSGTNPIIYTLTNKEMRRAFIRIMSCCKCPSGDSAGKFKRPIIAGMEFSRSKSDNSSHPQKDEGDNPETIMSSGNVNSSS
# T2 sequence (Q99500 whole entry): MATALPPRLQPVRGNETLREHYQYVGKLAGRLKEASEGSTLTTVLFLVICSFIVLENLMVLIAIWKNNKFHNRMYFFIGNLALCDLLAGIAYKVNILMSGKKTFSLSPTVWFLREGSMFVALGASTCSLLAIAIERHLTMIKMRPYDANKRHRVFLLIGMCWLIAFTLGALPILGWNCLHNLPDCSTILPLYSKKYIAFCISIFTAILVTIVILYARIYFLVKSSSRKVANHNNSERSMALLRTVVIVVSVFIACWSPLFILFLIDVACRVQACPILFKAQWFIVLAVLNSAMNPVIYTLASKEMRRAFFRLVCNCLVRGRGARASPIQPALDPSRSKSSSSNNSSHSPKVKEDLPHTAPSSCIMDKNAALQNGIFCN
Structure (SMILES),inhibition at 10 µM (hS1P1; [5]) [%],inhibition at 10 µM (hS1P3 [1]; [6]) [%],IC50 (hS1P3 [2]) [nM],inhibition at 10 µM (hS1P2; [7]) [%],inhibition at 10 µM (hS1P1; [8]) [%],inhibition at 10 µM (hS1P2; [10]) [%],further results
"CC(C)(C)C(=O)C(=NNc1ccc(F)cc1)Nc1ccc(F)cc1 [Compound 54, 1-(4-fluorophenylamino)-1-(4-fluorophenylhydrazono)-3,3-dimethyl-2-butanone]",22,101,4380,16,,,
"CC(C)(C)C(=O)C(=NNc1ccc(Br)cc1)Nc1ccc(Br)cc1 [Compound 76, 1-(4-bromophenylamino)-1-(4-bromophenylhydrazono)-3,3-dimethyl-2-butanone]",5.1,103,1660,26.1,,,
"CCC(CC)C(=O)C(=NNc1ccc(Cl)cc1)Nc1ccc(F)cc1 [Compound 112, 1-(4-chlorophenylhydrazono)-1-(4-fluorophenylamino)-3-ethyl-2-pentanone]",22.1,86.6,1660,12.8,,,
"C#Cc1ccc(NC(=NNc2ccc(Cl)cc2)C(=O)C(C)(C)C)cc1 [Compound 136, 1-(4-chlorophenylhydrazono)-1-(4-ethynylphenylamino)-3,3-dimethyl-2-butanone]",,,990,,40.3,33.7,inhibition at 10 µM (hS1P3 [1]; [9]): 94.3%
"CC(C)(C)C(=O)/C(=N/c1ccc(Cl)cc1)NNc1ccc(Cl)cc1 [Compound 33, 1-(4-chlorophenylamino)-1-(4-chlorophenylhydrazono)-3,3-dimethyl-2-butanone]",,,,,,,time to reach the maximum blood concentration [3]: 4 h
"CC(C)(C)C(=O)C(=NNc1ccc(Br)cc1)Nc1ccc(F)cc1 [Compound 74, 1-(4-bromophenylhydrazono)-1-(4-fluorophenylamino)-3,3-dimethyl-2-butanone]",20.4,105,2320,23.2,,,
"CC(C)(C)C(=O)C(=NNc1ccc(C(F)(F)F)cc1)Nc1ccc(F)cc1 [Compound 67, 1-(4-fluorophenylamino)-1-(4-trifluoromethylphenylhydrazono)-3,3-dimethyl-2-butanone]",20.8,90.2,8200,15.5,,,
"C#Cc1ccc(NC(=NNc2ccc(Cl)cc2)C(=O)C(C)(C)CCl)cc1 [Compound 122, 4-chloro-1-(4-chlorophenylhydrazono)-1-(4-ethynylphenylamino)-3,3-dimethyl-2-butanone]",,,3860,,4.9,7.1,inhibition at 10 µM (hS1P3 [1]; [9]): 89.9%
"C#Cc1ccc(NC(=NNc2ccc(Cl)cc2)C(=O)CCCC)cc1 [Compound 111, 1-(4-chlorophenylhydrazono)-1-(4-ethynylphenylamino)-2-hexanone]",,,1550,,-16.6,23.1,inhibition at 10 µM (hS1P3 [1]; [9]): 95.1%
"CC(C)(C)C(=O)C(=NNc1ccc(Cl)cc1)Nc1ccc(Br)cc1 [Compound 134, 1-(4-bromophenylamino)-1-(4-chlorophenylhydrazono)-3,3-dimethyl-2-butanone]",36.4,96.5,870,29.8,,,
CCCCCCCCc1ccc(CCC(N)(CO)CO)cc1 [FTY720],,,,,,,"heart rate, effect of FTY720 [4]: reduced the heart rate and induced bradycardia"
"C#Cc1ccc(NC(=NNc2ccc(Br)cc2)C(=O)C(C)(C)C)cc1 [Compound 78, 1-(4-bromophenylhydrazono)-1-(4-ethynylphenylamino)-3,3-dimethyl-2-butanone]",,,970,,25.1,20.8,inhibition at 10 µM (hS1P3 [1]; [9]): 105%
"CC(C)(C)CC(=O)C(=NNc1ccc(Cl)cc1)Nc1cccc(Cl)c1 [Compound 140, 1-(3-chlorophenylamino)-1-(4-chlorophenylhydrazono)-4,4-dimethyl-2-pentanone]",,,1990,,18.3,26.2,
"CC(C)(C)NC(=O)C(=NNc1ccc(Cl)cc1)Nc1ccc(Cl)cc1 [Compound 29, N-tert-butyl-[1-(4-chlorophenylamino)-1-(4-chlorophenylhydrazono)]acetamide]",,,5110,,29.7,17.4,
"CCOC(=O)C(=NNc1ccc(Cl)cc1)Nc1cccc(F)c1 [Compound 13, ethyl 1-(4-chlorophenylhydrazono)-1-(3-fluorophenylamino)acetate]",26.1,,3120,-16.7,,,
"CC(C)(C)C(=O)C(=NNc1ccccc1)Nc1ccc(Cl)cc1 [Compound 50, 1-(4-chlorophenylamino)-1-(phenylhydrazono)-3,3-dimethyl-2-butanone]",,,3740,,25.1,13.6,
"O=C(C(=NNc1ccc(Cl)cc1)Nc1cccc(F)c1)N1CCCCC1 [Compound 21, [1-(4-Chlorophenylhydrazono)-1-(3-fluorophenylamino)acetyl]piperidine]",17.5,91.1,26800,13.7,,,
"O=C(C(=NNc1ccc(Cl)cc1)Nc1cccc(F)c1F)c1ccccc1 [Compound 3, 2-(4-chlorophenylhydrazono)-2-(2,3-difluorophenylamino)acetophenone]",18.6,68.5,14700,-0.4,,,
"C#Cc1ccc(NN=C(Nc2ccc(C#C)cc2)C(=O)C(C)(C)C)cc1 [Compound 138, 1-(4-ethynylphenylamino)-1-(4-ethynylphenylhydrazono)-3,3-dimethyl-2-butanone]",,,1620,,14.1,8,inhibition at 10 µM (hS1P3 [1]; [9]): 79.9%
"CC(C)(C)C(=O)C(=NNc1cccc(Cl)c1)Nc1ccc(Cl)cc1 [Compound 42, 1-(4-chlorophenylamino)-1-(3-chlorophenylhydrazono)-3,3-dimethyl-2-butanone]",,,2890,,7.9,32.9,
"CCCCCCCCCCCCC/C=C/[C@@H](O)[C@@H](N)COP(=O)(O)O [Compound S1P, sphingosine 1-phosphate]",,,,,,,"coronary blood flow rate, effect of S1P (isolated heart of rat): significantly decreased"
"CC(C)(C)C(=O)C(=NNc1ccc(Br)cc1)Nc1ccc(Cl)cc1 [Compound 75, 1-(4-bromophenylhydrazono)-1-(4-chlorophenylamino)-3,3-dimethyl-2-butanone]",,,1170,,17,17.9,
